Test results published in patent US20140057976A1, “USNIC ACID TOPICAL FORMULATION” (EVOCUTIS PLC, priority 2011, published 2014).
Marks after values point to notes of the source that are not given here.

Experiments:
[1] = system: S. aureus ATCC 29213; assay: MBC against S. aureus; format: cell-based
[2] = system: S. aureus ATCC 29213; assay: MIC against S. aureus; format: cell-based
[3] = system: Corynebacterium striatum NCTC 764; assay: MBC against Corynebacterium striatum; format: cell-based
[4] = system: Propionibacterium acnes NCTC 737; assay: Minimum inhibitory concentration (MIC) assay; format: cell-based; conditions: P. acnes NCTC 737
Experimental: (§1) The test organism used was Propionibacterium acnes NCTC 737. This is a propionibacterial strain and is the type strain of the […]; it is fully susceptible to antibiotics. The propionibacteria are clinically significant due to their involvement in acne. They are also opportunistic pathogens in compromised hosts. Activity observed against these micro-organisms is expected to be a good predictor of activity against acne.
(§2) The propionibacteria were cultured and maintained on Wilkins-Chalgren Anaerobe Medium (agar and broth) at pH 6.0; all cultures were incubated anaerobically at 37° C. for 72 hours.
This is a standard international method for quantitatively assessing the antimicrobial activity of a compound/formulation in a liquid medium. The method used a sterile 96-well microtitre plate, capable of holding about 200 μl of liquid per well. The wells contained liquid culture medium and ranges of decreasing concentrations of the relevant test compound/formulation (in this case reported as the relative concentration of the active molecule—copper usnate—in the formulations) in doubling dilutions (eg 1000, 500, 250, 125 . . . μg/ml, etc, down to 0.49 μg/ml). The culture media were as described above.
The wells were inoculated with a liquid suspension of freshly grown micro-organism and incubated under the conditions described above. After incubation, the microtitre plate was examined visually for cloudiness in each well, which would indicate microbial growth. The MIC value was recorded as the lowest concentration of test compound/formulation required to inhibit microbial growth, ie the lowest concentration for which the liquid in the well remained clear.
The assays included both negative (culture medium with no micro-organisms) and positive (culture medium plus diluting solvent plus micro-organism) controls.

[5] = system: Propionibacterium acnes NCTC 737; assay: Minimum biocidal concentration (MBC) assay; format: cell-based; conditions: P. acnes NCTC 737
Experimental: as §1, §2
This assay, normally carried out after an MIC assay, determines the minimum concentration of a compound or formulation that is lethal to the test micro-organism.
These samples were then individually sub-cultured on antibiotic-free agar medium, under the incubation conditions described above. Following incubation they were examined visually for microbial growth.
The ratio of MIC to MBC should ideally be as close to 1 as possible. This facilitates selection of the lowest possible effective concentration of a test compound or formulation, with a reduced risk of selecting a sub-lethal concentration which could promote resistance or allow the target microbial population to recover.

[6] = system: P. acnes NCTC 737; assay: Synthetic sebum time-to-kill assay; format: cell-based, Propionibacterium acnes; conditions: 49 μg/mL Cu usnate (equivalent)
Experimental: This quantitative assay was designed to assess the level of kill of a P. acnes culture in a synthetic sebum (non-aqueous environment) over a defined time period, in this case 4 hours. A culture of P. acnes NCTC 737 was inoculated into a synthetic sebum (a liquid mixture of lipid components designed to simulate human sebum) containing the relevant test compound or formulation diluted in 1-octanol. From this culture, samples were taken after 4 hours, 10-fold serially diluted in wash fluid (0.075 M sodium phosphate buffer, pH 7.9, 0.1% v/v Triton™-X 100) and inoculated onto agar plates (in triplicate). The plates were then incubated as described above and subsequently examined visually for growth. The numbers of viable microbial colonies on the plates were counted with the aid of a colony counter and converted to colony-forming units per ml (cfu/ml) using the appropriate dilution factor. Cell counts conducted in the absence of formulations (but still in the presence of 1-octanol) acted as positive controls. All experiments were conducted in triplicate.

[7] = system: Corynebacterium striatum NCTC 764; assay: MIC against Corynebacterium striatum; format: cell-based

- MIC [2]: 7.8 µg/mL
- MIC:MBC ratio ([4]; Example 13): 0.25
- MIC ([4]; Example 13, formulations as Cu usnate equivalent, anaerobic 37° C. 72 hours): 0.24 µg/mL
- minimum inhibitory concentration (MIC) ([4]; found by the present inventors): 0.49 µg/mL
- MIC [7]: 3.9 µg/mL
SMILES: CC(=O)c1c([O-])c(C)c([O-])c2c1OC1=CC(=O)C(C(C)=O)C(=O)C12C.[Cu+2] (stereo not drawn) [Copper usnate, copper (II) di-usnate]
- MBC [1]: 62.5 µg/mL
- MBC [3]: 62.5 µg/mL
- MBC ([5]; Example 13, formulations as Cu usnate equivalent): 0.98 µg/mL
- minimum biocidal concentration (MBC) ([5]; found by the present inventors): 3.9 µg/mL
- Log10 cfu/ml (T0 hours) ([6]; T0 hours): 7.97 Log10 cfu/ml
- Log10 change ([6]; T0 to T4 hours): −4.97 Log10
- Log10 cfu/ml (T4 hours) ([6]; T4 hours, lowest detectable level = 3.0 Log10 cfu/ml): ≤ 3.0* Log10 cfu/ml
